Experimental data reported in patent US6740680B1, “Pharmaceutical compositions to tetrac and methods of use thereof” (Becton Pharma, Inc., priority 1999, dated 2004).
Like-named read-outs stand apart in the source and are kept apart here.

What was measured:
[1] = Serum T3, T4, Triac and Tetrac levels in infused rats; assay type: in vivo; settings: male, SIVZ, rat, intraperitoneal, mean ± SEM, read-out: Serum Tetrac
Description: (§1) Seventy-nine male SIVZ rats were purchased from the breeder (Institut für Labortierkunde des Universität Zürich, Zürich, Switzerland). They were rendered hypothyroid by a single injection of [^131I]Na (100 μCi/rat) and before and throughout the experiment 0.02% 2-mercapto-1-methylimidazol (MMI) was added to drinking water. In order to have an euthyroid control group of similar weight and identical age, 10 rats received only MMI in the drinking water and 2 weeks before implanting the minipumps, MMI was withdrawn. Osmotic minipumps (secretion rate 0.25 μl/hour, duration 14 days) were implanted intraperitoneally (i.p.) 2 months after the injection of [^131I]Na. The minipumps were filled with T4 or Tetrac dissolved in 0.05 N NaOH, 2% BSA and 100,000 cpm [^125I]T4 or [^125I]Tetrac as control of their secretion rates. The infusion lasted 13 days. 0, 1.5, 4.5, 13.5 and 40.5 nmol Tetrac/day/100 g or 0.5, 1.5, 4.5 and 13.5 nmol T4/day/100 g bodyweight (BW) (n=4/dose) were infused. An euthyroid control group was included. The animals were weighed every 2 days. Rats were sacrificed by decapitation and blood was collected and stored at −200° C. until use. Tissues (liver, heart, brown adipose tissue, cerebral cortex and pituitary) were removed rapidly, frozen in liquid nitrogen and stored at −700° C. until use.
Hornone assays. Total serum T4, T3, Tetrac, Triac and TSH levels (intra-assay coefficient of variation 7 to 10%, inter-assay coefficient of variation 12 to 15%) were measured using the method of Burger, A., Sakoloff, C., Staeheli, V., Vallotton, M. D., and Ingbar, S. H. Acta. Endocrinol. (Copenh.) 80: 58-69 (1975). Serum TSH measurements were performed with reagents kindly provided by the National Pituitary Program, NIAMDD, NIH (Bethesda, USA). The detection limits were 0.80 ng TSH/ml; 9.5 pmol T4/ml; 0.16 pmol T3/ml; 10 pmol Tetrac/ml and 0.52 pmol Triac/ml.

Monodeiodinase type 1 = Monodeiodinase type 1 activity in liver and heart homogenates of infused rats; assay type: in vivo, rat
Description: as §1
(§2) Monodeiodinase type 1 and 2 activities. Monodeiodinase type 1 and type 2 activities were determined in tissue homogenates by measuring the release of radioiodide from [^125I]rT3 according to the method of Leonard and Rosenberg (Leonard, J. L. et al. Endocrinology (1980) 106: 444-451).
(§3) Monodeiodinase type 1 activity was measured in liver homogenates using 1 μM rT3 and 1 mM DTT with 10 min of incubation, whereas for heart, 0.01 μM rT3 and 10 mM DTT with 1 hour of incubation. Monodeiodinase type 2 activity was measured in brown adipose tissue (BAT) and cerebral cortex using 1 nM rT3, 10 mM DTT and 1 mM propylthiouracil (PTU) with 1 hour of incubation. Protein concentrations were measured by the method of Bradford (Bio-Rad Laboratories GmbH, Munich, Germany) with bovine gammaglobulin as the protein standard. In order to study the effect of circulating Tetrac on the enzyme activities, 2 rats were injected intraperitoneally with 10 μCi ^125I Tetrac and killed 6 hours later. The tissue homogenates were extracted with 3 volumes of ethanol-NH3 (97:3). After 10 minutes centrifugation at 15,000 g, the supernatant was vacuum dried and applied to TLC (Merck 254, Toluol, acetic acid, water: 2:2:1). In order to calculate the tissue concentrations, the highest serum Tetrac levels were used (406 pmol/ml). The calculated tissue concentrations were: liver: 1.9, heart: 2.29 and brain cortex: 0.47 fluol Tetrac/μg protein.

SERCA 2a mRNA = experiment: Northern blot, SERCA 2a mRNA in heart; assay type: in vivo, rat; settings: FIG. 2b, compared to T4, p<0.001
Description: as §1, with “Rats were sacrificed by decapitation and blood was collected and stored at −200° C. until use. Tissues (liver, heart, brown adipose tissue, cerebral cortex and pituitary) were removed rapidly, frozen in liquid nitrogen and stored at −700° C. until use.” left out
(§4) The amount of labeled mRNA was quantified by scanning laser densitometry (Phosphorimager, Molecular Dynamics; Sunnyvale, USA). Variations in RNA loading and membrane transfer were corrected by densitometric quantification of a negative photograph of 28S and 18S ribosomal RNA bands from ethidium bromide stained RNA gels. […]

[2] = test system: monodeiodinase type 2 mRNA; experiment: Northern blot, monodeiodinase type 2 mRNA in pituitary; assay type: in vivo, rat; settings: FIG. 5b, compared with T4, p=0.001
Description: as §1, with “Rats were sacrificed by decapitation and blood was collected and stored at −200° C. until use. Tissues (liver, heart, brown adipose tissue, cerebral cortex and pituitary) were removed rapidly, frozen in liquid nitrogen and stored at −700° C. until use.” left out
as §4

Monodeiodinase type 2 = target: T1, Monodeiodinase type 2 (Rattus norvegicus, UniProt P70551); experiment: Addition of Tetrac to monodeiodinase type 2 assay with microsomal protein from brain cortex; assay type: biochemical; settings: 1 fmol Tetrac/μg protein added
T1 construct: monodeiodinase type 2 assay using microsomol protein from brain cortex; from tissue; host or cells: brain cortex microsomal protein
T1 sequence (P70551 1-266): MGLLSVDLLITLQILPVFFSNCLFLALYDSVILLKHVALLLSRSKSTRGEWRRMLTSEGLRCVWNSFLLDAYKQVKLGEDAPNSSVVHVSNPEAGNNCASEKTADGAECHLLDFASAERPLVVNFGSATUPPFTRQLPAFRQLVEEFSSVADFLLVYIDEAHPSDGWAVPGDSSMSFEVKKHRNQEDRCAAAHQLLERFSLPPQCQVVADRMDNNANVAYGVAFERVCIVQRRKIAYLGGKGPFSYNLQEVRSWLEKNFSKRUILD
Description: as §2
as §3, with “In order to calculate the tissue concentrations, the highest serum Tetrac levels were used (406 pmol/ml).” left out, “protein. […]” for “protein.”

## O=C(O)Cc1cc(I)c(Oc2cc(I)c(O)c(I)c2)c(I)c1 [Tetrac, 3,3′,5,5′-tetraiodothyroacetic acid]
[1]; Tetrac infusion 1.5 nmol/day/100 g BW
  concentration at 13 days: 0.168 ± 0.016 µM
[1]; Tetrac infusion 4.5 nmol/day/100 g BW
  concentration at 13 days: 0.332 ± 0.019 µM
[1]; Tetrac infusion 13.5 nmol/day/100 g BW
  concentration at 13 days: 0.458 ± 0.027 µM
[1]; Tetrac infusion 40.5 nmol/day/100 g BW
  concentration at 13 days: 0.406 ± 0.057 µM
Monodeiodinase type 1; Liver, at equal serum TSH concentration
  Residual Monodeiodinase type 1 activity, Tetrac/T4 (activity of Tetrac in % of T4): 59%
Monodeiodinase type 1; Liver, infused rats, adjusted group mean at the mean Ln (TSH) concentration
  Residual Monodeiodinase type 1 activity, adjusted mean: 106
Monodeiodinase type 1; heart, FIG. 2a, compared to T4, p<0.001
  Cardiac monodeiodinase type 1 activity, response to increasing doses (in words): weak response
SERCA 2a mRNA
  SERCA 2a mRNA levels, response to increasing doses (in words): weak response
[2]
  Inhibition of the mRNA levels of monodeiodinase type 2 (in words): clearly less efficient
Monodeiodinase type 2
  Monodeiodinase type 2 activity, % of the full activity: 90.5%
